Values of other authors, collected in patent US20100130406A1, “GLYCATED MILK AND USES THEREOF” (SOMNACEUTICS LIMITED, priority 2007, published 2010).

Key:
[1] = normal (non-glycated) peptide

N[C@@H](Cc1c[nH]c2ccccc12)C(=O)O [1-tryptophane]
quantity required for a soporific effect (humans): about 1 g

COc1ccc2[nH]cc(CCNC(C)=O)c2c1 [Melatonin]
quantity having a soporific effect for some people (humans): 3 to 5 mg

beta-casomorphin-7
sedative and anxiolytic effects (chickens): sedative and anxiolytic effects
half-life in the circulation [1]: about a few minutes
sedative and anxiolytic effects (rats): sedative and anxiolytic effects
sedative and anxiolytic effects (cockroaches): sedative and anxiolytic effects
